pIC50: −log10 of the molar value. Starred links: 1 amine or outer side, 2 acyl side, 3 side chain; linkers in the order of their positions; H or OH if unused. Positions of bridges follow the written chain, without caps; N, C: chain ends. Non-standard residues stand in square brackets, D forms with d. Residues, ends and D or L forms follow the SMILES beside them. *: point of attachment. hPhe(3,5-F2-4-CF3) = N[C@@H](CCc1cc(F)c(C(F)(F)F)c(F)c1)C(=O)O; hPhe(3-Cl-4-CF3) = N[C@@H](CCc1ccc(C(F)(F)F)c(Cl)c1)C(=O)O; NMePhe(4-CF3) = CN[C@@H](Cc1ccc(C(F)(F)F)cc1)C(=O)O; hPhe(4-CF3) = N[C@@H](CCc1ccc(C(F)(F)F)cc1)C(=O)O; ACHC(1R,2R) = O=C([C@@H]1CCCC[C@H]1N[*:1])[*:2]; NMePhe(4-CN) = CN[C@@H](Cc1ccc(C#N)cc1)C(=O)O; NEtPhe(4-Me) = CCN[C@@H](Cc1ccc(C)cc1)C(=O)O; NMePhe(4-Cl) = CN[C@@H](Cc1ccc(Cl)cc1)C(=O)O; hPhe(4-Cl) = N[C@@H](CCc1ccc(Cl)cc1)C(=O)O; NMedβ3hAla = C[C@H](CC(=O)[*:2])N(C)[*:1]; NMeGly(cPent) = CN[C@H](C(=O)O)C1CCCC1; Pro(4,4-F2) = O=C(O)[C@@H]1CC(F)(F)CN1; NMeCha = CN[C@@H](CC1CCCCC1)C(=O)O; NMeGly(cPr) = CN[C@H](C(=O)O)C1CC1; NMeChg = CN[C@H](C(=O)O)C1CCCCC1; NMeI = CC[C@H](C)[C@H](NC)C(=O)O; NMeD = CN[C@@H](CC(=O)O)C(=O)O; NMeL = CN[C@@H](CC(C)C)C(=O)O; NMeV = CN[C@H](C(=O)O)C(C)C; d(β3hA) = C[C@@H](N)CC(=O)O; NMeA = CN[C@@H](C)C(=O)O; Piperidide = C1CCN(*)CC1; Ac5c = NC1(C(=O)O)CCCC1; Aze = O=C(O)[C@@H]1CCN1; Ac4c = NC1(C(=O)O)CCC1; Sar = CNCC(=O)O

T1 sequence (P01116 1-188 isoform P01116-2 G12D): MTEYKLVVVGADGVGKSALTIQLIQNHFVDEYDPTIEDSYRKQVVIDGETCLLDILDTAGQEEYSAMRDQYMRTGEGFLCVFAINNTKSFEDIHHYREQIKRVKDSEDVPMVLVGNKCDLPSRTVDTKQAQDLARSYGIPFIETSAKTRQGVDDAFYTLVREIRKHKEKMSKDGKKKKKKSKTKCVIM

This test concerns the target T1, Kras and SOS1 (biotin-tagged human Kras loaded with GDP, His-tagged human SOS1) (Homo sapiens, UniProt P01116, G12D).
T1 construct: made in house; host or cells: E. coli (stated for Kras only)
The experiment in a line: Protein-protein interaction inhibition between Kras and SOS1 (KrasGl2D-SOS PPI) using AlphaScreen. As to conditions: AlphaScreen; biotin-tagged human Kras loaded with GDP, His-tagged human SOS1; read-out: KRAS G12D-SOS PPI IC50. The format is binding. An outline of the steps: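 AlphaScreen format: Ni donor beads capture His-SOS1, streptavidin acceptor beads capture biotinylated Kras (E. coli-expressed, GDP-loaded post-purification). Excite 680 nm, read 520-620 nm.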
In the case of `CC[C@H](C)[C@@H]1NC(=O)[C@H](CC(C)C)N(C)C(=O)C[C@@H](C)NC(=O)[C@H](C(C)C)N(C)C(=O)C2(CCCC2)NC(=O)[C@@H]2CCCN2C(=O)[C@H](CCc2ccc(C(F)(F)F)c(Cl)c2)NC(=O)CN(C)C(=O)[C@H](Cc2ccc(C#N)cc2)N(C)C(=O)CN(C)C(=O)CN(C)C1=O` [Compound 564] (cyclo([Ac5c][NMeV][d(β3hA)][NMeL]I[Sar][Sar][NMePhe(4-CN)][Sar][hPhe(3-Cl-4-CF3)]P)), the pIC50 was 8.02. Consider `CC[C@H](C)[C@@H]1NC(=O)[C@H](C2CC2)N(C)C(=O)C[C@@H](C)NC(=O)[C@H](C(C)C)N(C)C(=O)C2(CCCC2)NC(=O)[C@@H]2CCCN2C(=O)[C@H](CCc2ccc(C(F)(F)F)c(Cl)c2)NC(=O)CN(C)C(=O)[C@H](CC2CCCCC2)N(C)C(=O)[C@@H]2CCN2C(=O)[C@H](C)N(C)C1=O` [Compound 565] (cyclo([Ac5c][NMeV][d(β3hA)][NMeGly(cPr)]I[NMeA][Aze][NMeCha][Sar][hPhe(3-Cl-4-CF3)]P)), for which the pIC50 was 7.26. For the compound `CC[C@H](C)[C@@H]1NC(=O)[C@H](CC(C)C)NC(=O)[C@@H]2CCCC[C@H]2NC(=O)[C@H](C(C)C)N(C)C(=O)C2(CCCC2)NC(=O)[C@@H]2CCCN2C(=O)[C@H](CCc2ccc(C(F)(F)F)c(Cl)c2)NC(=O)CN(C)C(=O)[C@H](CC2CCCCC2)N(C)C(=O)CN(C)C(=O)CN(C)C1=O` [Compound 569] (cyclo([Ac5c][NMeV][ACHC(1R,2R)]LI[Sar][Sar][NMeCha][Sar][hPhe(3-Cl-4-CF3)]P)), the pIC50 was 7.14. As for `CC[C@H](C)[C@@H]1NC(=O)[C@H](C2CCCC2)N(C)C(=O)C[C@@H](C)NC(=O)[C@H](C(C)C)N(C)C(=O)C2(CCCC2)NC(=O)[C@@H]2CCCN2C(=O)[C@H](CCc2ccc(C(F)(F)F)c(Cl)c2)NC(=O)CN(C)C(=O)[C@H](CC2CCCCC2)N(C)C(=O)[C@@H]2CCN2C(=O)[C@H](C)N(C)C1=O` [Compound 570] (cyclo([Ac5c][NMeV][d(β3hA)][NMeGly(cPent)]I[NMeA][Aze][NMeCha][Sar][hPhe(3-Cl-4-CF3)]P)), the pIC50 is 7.57. For the compound `CC[C@H](C)[C@@H]1NC(=O)[C@H](CC(C)C)N(C)C(=O)C[C@@H](C(=O)N(C)C)N(C)C(=O)[C@H]([C@@H](C)CC)N(C)C(=O)C2(CCCC2)NC(=O)[C@@H]2CCCN2C(=O)[C@H](CCc2cc(F)c(C(F)(F)F)c(F)c2)NC(=O)CN(C)C(=O)[C@H](Cc2ccc(C)cc2)N(CC)C(=O)[C@@H]2CCN2C(=O)[C@H](C)N(C)C1=O` [Compound 571] ([NMeL]I[NMeA][Aze][NEtPhe(4-Me)][Sar][hPhe(3,5-F2-4-CF3)]P[Ac5c][NMeI][NMeD]-NMe2; lactam N-11), the pIC50 is 9.08. On to `CC[C@H](C)[C@@H]1NC(=O)[C@H](CC(C)C)N(C)C(=O)C[C@@H](C)NC(=O)[C@H](C(C)C)N(C)C(=O)C2(CCCC2)NC(=O)[C@@H]2CCCN2C(=O)[C@H](CCc2ccc(Cl)cc2)NC(=O)CN(C)C(=O)[C@H](CC2CCCCC2)N(C)C(=O)CN(C)C(=O)CN(C)C1=O` [Compound 576] (cyclo([Ac5c][NMeV][d(β3hA)][NMeL]I[Sar][Sar][NMeCha][Sar][hPhe(4-Cl)]P)), for which the pIC50 was 6.64. Regarding `CC[C@H](C)[C@@H]1NC(=O)[C@H](CC(C)C)N(C)C(=O)C[C@@H](C(=O)N2CCCCC2)N(C)C(=O)[C@H](CC2CCCCC2)N(C)C(=O)C2(CCCC2)NC(=O)[C@@H]2CCCN2C(=O)[C@H](CCc2ccc(C(F)(F)F)c(Cl)c2)NC(=O)CN(C)C(=O)[C@H](CC2CCCCC2)N(C)C(=O)CN(C)C(=O)CN(C)C1=O` [Compound 577] ([NMeL]I[Sar][Sar][NMeCha][Sar][hPhe(3-Cl-4-CF3)]P[Ac5c][NMeCha][NMeD]-Piperidide; lactam N-11), the pIC50 was 7.68. Consider `CC[C@H](C)[C@@H]1NC(=O)[C@H](CC2CCCCC2)N(C)C(=O)C[C@@H](C)NC(=O)[C@H](CC(C)C)N(C)C(=O)C2(CCCC2)NC(=O)[C@@H]2CCCN2C(=O)[C@H](CCc2ccc(C(F)(F)F)cc2)NC(=O)CN(C)C(=O)[C@H](Cc2ccc(Cl)cc2)N(C)C(=O)CN(C)C(=O)CN(C)C1=O` [Compound 578] (cyclo([Ac5c][NMeL][d(β3hA)][NMeCha]I[Sar][Sar][NMePhe(4-Cl)][Sar][hPhe(4-CF3)]P)), for which the pIC50 is 6.92. As to `CC[C@H](C)[C@@H]1NC(=O)[C@H](CC(C)C)N(C)C(=O)C[C@@H](C)N(C)C(=O)[C@H](C2CCCCC2)N(C)C(=O)C2(CCC2)NC(=O)[C@@H]2CC(F)(F)CN2C(=O)[C@H](CCc2cc(F)c(C(F)(F)F)c(F)c2)NC(=O)CN(C)C(=O)[C@H](Cc2ccc(C(F)(F)F)cc2)N(C)C(=O)CN(C)C(=O)CN(C)C1=O` [Compound 579] (cyclo([Ac4c][NMeChg][NMedβ3hAla][NMeL]I[Sar][Sar][NMePhe(4-CF3)][Sar][hPhe(3,5-F2-4-CF3)][Pro(4,4-F2)])), the pIC50 is 7.77.

Broadly, the pIC50 is −log10 of the IC50, conventionally taken in molar units.

These data come from patent US12371454B2, “Cyclic peptide compound having Kras inhibitory action” (priority 2019, dated 2025).
